# Source: ChEMBL document CHEMBL4507315 (2021)
# Key:
# [1] = target: cAMP-dependent protein kinase catalytic subunit beta (Homo sapiens) (UniProt P22694); settings: Compound concentration 100.0 nM
# [2] = target: Inhibitor of nuclear factor kappa-B kinase subunit epsilon (Homo sapiens) (UniProt Q14164); settings: Compound concentration 100.0 nM
# [3] = target: Tyrosine-protein kinase ABL1 (Homo sapiens) (UniProt P00519); settings: Compound concentration 100.0 nM
# [4] = tested on: Tyrosine-protein kinase ABL1 (Homo sapiens), P00519 [Q252H]; settings: Compound concentration 100.0 nM
# [5] = target: Homeodomain-interacting protein kinase 4 (Homo sapiens) (UniProt Q8NE63); settings: Compound concentration 100.0 nM
# [6] = tested on: Phosphatidylinositol 4,5-bisphosphate 3-kinase catalytic subunit alpha isoform (Homo sapiens), P42336 [E542K]; settings: Compound concentration 100.0 nM
# [7] = tested on: Epidermal growth factor receptor (Homo sapiens), P00533 [T790M]; settings: Compound concentration 100.0 nM
# [8] = target: Insulin receptor-related protein (Homo sapiens) (UniProt P14616); settings: Compound concentration 100.0 nM
# Chain of Insulin receptor-related protein (Homo sapiens) (P14616 27-742 limits assumed): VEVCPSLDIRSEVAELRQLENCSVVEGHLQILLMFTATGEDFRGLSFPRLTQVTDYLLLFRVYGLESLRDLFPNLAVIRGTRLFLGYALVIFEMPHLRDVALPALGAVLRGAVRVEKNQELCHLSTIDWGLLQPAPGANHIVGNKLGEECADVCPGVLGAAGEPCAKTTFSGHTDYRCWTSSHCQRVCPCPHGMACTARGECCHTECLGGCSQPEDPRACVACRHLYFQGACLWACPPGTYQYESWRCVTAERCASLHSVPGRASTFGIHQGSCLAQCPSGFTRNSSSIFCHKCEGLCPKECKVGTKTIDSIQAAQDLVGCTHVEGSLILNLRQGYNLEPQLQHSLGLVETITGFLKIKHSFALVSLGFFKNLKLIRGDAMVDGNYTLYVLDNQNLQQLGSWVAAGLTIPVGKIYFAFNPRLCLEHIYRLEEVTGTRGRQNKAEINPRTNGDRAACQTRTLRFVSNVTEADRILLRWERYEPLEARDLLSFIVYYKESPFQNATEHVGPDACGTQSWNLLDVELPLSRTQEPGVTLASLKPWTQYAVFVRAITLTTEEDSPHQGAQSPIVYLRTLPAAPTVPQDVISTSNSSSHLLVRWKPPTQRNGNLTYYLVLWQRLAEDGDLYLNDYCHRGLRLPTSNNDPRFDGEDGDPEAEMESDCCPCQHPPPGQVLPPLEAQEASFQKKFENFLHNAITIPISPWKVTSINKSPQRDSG
# Chain of Insulin receptor-related protein (Homo sapiens) (P14616 747-1297 limits assumed): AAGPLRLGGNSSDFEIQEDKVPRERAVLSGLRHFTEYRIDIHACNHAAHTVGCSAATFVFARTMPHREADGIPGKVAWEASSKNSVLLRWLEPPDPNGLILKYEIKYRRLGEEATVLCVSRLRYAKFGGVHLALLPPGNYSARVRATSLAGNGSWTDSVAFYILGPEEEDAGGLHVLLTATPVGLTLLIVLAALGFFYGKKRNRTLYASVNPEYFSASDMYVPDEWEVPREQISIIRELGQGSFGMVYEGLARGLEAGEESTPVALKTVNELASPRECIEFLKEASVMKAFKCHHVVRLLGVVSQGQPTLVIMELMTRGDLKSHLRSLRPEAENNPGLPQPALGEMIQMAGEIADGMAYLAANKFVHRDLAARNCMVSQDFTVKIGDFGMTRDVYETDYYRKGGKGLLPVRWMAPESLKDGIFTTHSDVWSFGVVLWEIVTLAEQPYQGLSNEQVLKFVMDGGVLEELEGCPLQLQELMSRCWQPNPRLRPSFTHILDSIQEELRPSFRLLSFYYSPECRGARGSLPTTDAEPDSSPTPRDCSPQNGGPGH
# [9] = target: Leucine-rich repeat serine/threonine-protein kinase 2 (Homo sapiens) (UniProt Q5S007); settings: Compound concentration 100.0 nM
# [10] = tested on: Receptor-type tyrosine-protein kinase FLT3 (Homo sapiens), P36888 [D835H]; settings: Compound concentration 100.0 nM
# [11] = target: Ephrin type-B receptor 2 (Homo sapiens) (UniProt P29323); settings: Compound concentration 100.0 nM
# [12] = target: Tyrosine-protein kinase CSK (Homo sapiens) (UniProt P41240); settings: Compound concentration 100.0 nM
# [13] = target: Mitogen-activated protein kinase kinase kinase 1 (Homo sapiens) (UniProt Q13233); settings: Compound concentration 100.0 nM
# [14] = target: Mitogen-activated protein kinase kinase kinase kinase 4 (Homo sapiens) (UniProt O95819); settings: Compound concentration 100.0 nM
# [15] = target: Serine/threonine-protein kinase Sgk2 (Homo sapiens) (UniProt Q9HBY8); settings: Compound concentration 100.0 nM
# [16] = target: Activin receptor type-1-like (Homo sapiens) (UniProt P37023); settings: Compound concentration 100.0 nM
# Chain of Activin receptor type-1-like (Homo sapiens) (P37023 whole entry): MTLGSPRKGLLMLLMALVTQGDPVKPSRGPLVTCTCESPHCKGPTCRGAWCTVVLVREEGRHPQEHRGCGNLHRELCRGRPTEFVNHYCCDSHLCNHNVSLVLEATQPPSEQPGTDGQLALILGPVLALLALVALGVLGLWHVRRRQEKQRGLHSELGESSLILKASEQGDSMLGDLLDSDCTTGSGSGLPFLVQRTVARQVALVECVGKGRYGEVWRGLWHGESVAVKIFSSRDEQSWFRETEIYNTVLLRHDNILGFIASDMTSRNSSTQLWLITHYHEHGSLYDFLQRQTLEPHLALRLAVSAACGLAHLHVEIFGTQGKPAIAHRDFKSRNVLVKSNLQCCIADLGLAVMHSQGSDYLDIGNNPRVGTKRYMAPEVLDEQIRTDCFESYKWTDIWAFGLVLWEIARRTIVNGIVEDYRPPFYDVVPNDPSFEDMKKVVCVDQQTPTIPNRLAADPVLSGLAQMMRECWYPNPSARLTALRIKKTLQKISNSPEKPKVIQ
# [17] = target: Alpha-2C adrenergic receptor (Homo sapiens) (UniProt P18825); settings: Compound concentration 10.0 uM
# [18] = target: Serine/threonine-protein kinase SIK3 (Homo sapiens) (UniProt Q9Y2K2); settings: Compound concentration 100.0 nM
# Chain of Serine/threonine-protein kinase SIK3 (Homo sapiens) (Q9Y2K2 whole entry, looked up): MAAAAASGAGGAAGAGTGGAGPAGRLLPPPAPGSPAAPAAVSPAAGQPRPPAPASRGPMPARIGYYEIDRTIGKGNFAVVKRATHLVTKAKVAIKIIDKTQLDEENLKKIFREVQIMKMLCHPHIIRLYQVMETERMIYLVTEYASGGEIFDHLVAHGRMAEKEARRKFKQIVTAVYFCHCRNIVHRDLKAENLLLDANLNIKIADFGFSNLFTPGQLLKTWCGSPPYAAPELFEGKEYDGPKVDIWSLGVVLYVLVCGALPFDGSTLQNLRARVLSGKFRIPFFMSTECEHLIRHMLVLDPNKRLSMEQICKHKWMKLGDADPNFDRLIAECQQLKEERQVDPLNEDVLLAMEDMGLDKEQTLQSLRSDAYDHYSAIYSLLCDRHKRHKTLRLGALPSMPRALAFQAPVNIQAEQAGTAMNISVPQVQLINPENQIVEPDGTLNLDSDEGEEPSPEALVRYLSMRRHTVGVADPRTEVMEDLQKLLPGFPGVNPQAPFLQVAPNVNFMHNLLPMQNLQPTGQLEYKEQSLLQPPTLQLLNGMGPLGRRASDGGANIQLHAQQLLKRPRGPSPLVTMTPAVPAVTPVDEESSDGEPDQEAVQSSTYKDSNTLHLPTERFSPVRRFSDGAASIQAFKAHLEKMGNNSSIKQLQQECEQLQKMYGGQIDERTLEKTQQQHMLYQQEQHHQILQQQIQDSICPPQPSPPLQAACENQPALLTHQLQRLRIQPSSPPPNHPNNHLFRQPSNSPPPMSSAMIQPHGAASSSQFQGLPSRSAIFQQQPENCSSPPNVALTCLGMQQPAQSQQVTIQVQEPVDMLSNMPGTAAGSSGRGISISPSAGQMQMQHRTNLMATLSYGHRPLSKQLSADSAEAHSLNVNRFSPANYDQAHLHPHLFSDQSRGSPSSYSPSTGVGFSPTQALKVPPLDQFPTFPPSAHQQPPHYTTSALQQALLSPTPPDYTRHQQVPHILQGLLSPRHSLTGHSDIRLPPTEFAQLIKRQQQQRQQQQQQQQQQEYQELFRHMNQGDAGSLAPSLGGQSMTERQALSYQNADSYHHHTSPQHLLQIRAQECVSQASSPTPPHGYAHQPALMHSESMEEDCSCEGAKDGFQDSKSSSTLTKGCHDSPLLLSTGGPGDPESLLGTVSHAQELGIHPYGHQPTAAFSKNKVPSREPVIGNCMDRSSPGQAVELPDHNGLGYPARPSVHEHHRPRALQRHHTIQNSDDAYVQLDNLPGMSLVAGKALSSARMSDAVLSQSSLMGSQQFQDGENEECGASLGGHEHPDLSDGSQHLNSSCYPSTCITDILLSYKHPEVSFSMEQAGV
# [19] = target: Tyrosine-protein kinase Yes (Homo sapiens) (UniProt P07947); settings: Compound concentration 100.0 nM
# [20] = target: AP2-associated protein kinase 1 (Homo sapiens) (UniProt Q2M2I8); settings: Compound concentration 100.0 nM
# [21] = tested on: Receptor-type tyrosine-protein kinase FLT3 (Homo sapiens), P36888 [D835V]; settings: Compound concentration 100.0 nM
# [22] = tested on: Tyrosine-protein kinase ABL1 (Homo sapiens), P00519 [F317L]; settings: Compound concentration 100.0 nM
# [23] = target: Receptor-interacting serine/threonine-protein kinase 1 (Homo sapiens) (UniProt Q13546); settings: Compound concentration 100.0 nM
# [24] = tested on: Epidermal growth factor receptor (Homo sapiens), P00533 [UNDEFINED MUTATION]; settings: Compound concentration 100.0 nM
# [25] = target: Dual specificity protein kinase CLK1 (Homo sapiens) (UniProt P49759); settings: Compound concentration 100.0 nM
# [26] = target: Testis-specific serine/threonine-protein kinase 1 (Homo sapiens) (UniProt Q9BXA7); settings: Compound concentration 100.0 nM
# [27] = target: Wee1-like protein kinase (Homo sapiens) (UniProt P30291); settings: Compound concentration 100.0 nM
# [28] = target: MAP kinase-interacting serine/threonine-protein kinase 2 (Homo sapiens) (UniProt Q9HBH9); settings: Compound concentration 100.0 nM
# [29] = target: Dual specificity tyrosine-phosphorylation-regulated kinase 1A (Homo sapiens) (UniProt Q13627); settings: Compound concentration 100.0 nM
# [30] = target: Macrophage colony-stimulating factor 1 receptor (Homo sapiens) (UniProt P07333); settings: Compound concentration 100.0 nM
# [31] = target: Myosin light chain kinase, smooth muscle (Homo sapiens) (UniProt Q15746); settings: Compound concentration 100.0 nM
# [32] = target: Cyclin-dependent kinase 2 (Homo sapiens) (UniProt P24941); settings: Compound concentration 100.0 nM
# [33] = target: Interleukin-1 receptor-associated kinase 1 (Homo sapiens) (UniProt P51617); settings: Compound concentration 100.0 nM
# [34] = target: Tyrosine-protein kinase Fes/Fps (Homo sapiens) (UniProt P07332); settings: Compound concentration 100.0 nM
# [35] = target: Serine/threonine-protein kinase Sgk3 (Homo sapiens) (UniProt Q96BR1); settings: Compound concentration 100.0 nM
# [36] = target: Dual specificity mitogen-activated protein kinase kinase 3 (Homo sapiens) (UniProt P46734); settings: Compound concentration 100.0 nM
# [37] = target: Serine/threonine-protein kinase PRP4 homolog (Homo sapiens) (UniProt Q13523); settings: Compound concentration 100.0 nM
# Chain of Serine/threonine-protein kinase PRP4 homolog (Homo sapiens) (Q13523 whole entry): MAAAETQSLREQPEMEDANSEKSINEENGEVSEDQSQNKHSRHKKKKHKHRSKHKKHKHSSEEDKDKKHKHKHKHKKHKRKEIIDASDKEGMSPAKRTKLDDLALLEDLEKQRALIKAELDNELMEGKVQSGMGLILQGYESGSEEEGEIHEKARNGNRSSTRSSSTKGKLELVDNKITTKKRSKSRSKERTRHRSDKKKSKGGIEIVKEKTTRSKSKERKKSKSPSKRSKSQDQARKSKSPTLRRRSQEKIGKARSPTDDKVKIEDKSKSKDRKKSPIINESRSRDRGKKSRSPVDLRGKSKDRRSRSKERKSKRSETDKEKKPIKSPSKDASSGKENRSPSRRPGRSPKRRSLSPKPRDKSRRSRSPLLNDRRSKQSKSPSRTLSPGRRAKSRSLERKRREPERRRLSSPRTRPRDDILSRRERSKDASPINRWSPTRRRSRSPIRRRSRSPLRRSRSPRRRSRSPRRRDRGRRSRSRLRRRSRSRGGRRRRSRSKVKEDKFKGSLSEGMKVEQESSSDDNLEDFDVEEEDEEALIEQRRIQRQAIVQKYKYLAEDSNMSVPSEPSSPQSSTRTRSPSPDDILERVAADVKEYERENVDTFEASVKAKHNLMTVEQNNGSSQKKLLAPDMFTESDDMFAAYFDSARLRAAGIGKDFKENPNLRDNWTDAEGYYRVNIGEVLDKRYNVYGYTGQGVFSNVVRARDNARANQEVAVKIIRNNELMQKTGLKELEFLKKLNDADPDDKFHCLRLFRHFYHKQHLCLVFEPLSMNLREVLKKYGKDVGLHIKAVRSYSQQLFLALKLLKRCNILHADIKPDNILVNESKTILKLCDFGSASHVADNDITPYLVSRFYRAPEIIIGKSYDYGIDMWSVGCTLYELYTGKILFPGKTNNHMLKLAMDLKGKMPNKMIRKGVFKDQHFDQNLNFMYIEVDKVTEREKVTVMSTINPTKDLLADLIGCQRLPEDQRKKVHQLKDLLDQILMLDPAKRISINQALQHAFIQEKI
# [38] = target: Dual specificity mitogen-activated protein kinase kinase 7 (Homo sapiens) (UniProt O14733); settings: Compound concentration 100.0 nM
# [39] = target: Tyrosine-protein kinase ABL2 (Homo sapiens) (UniProt P42684); settings: Compound concentration 100.0 nM
# [40] = target: Cyclin-dependent kinase 7 (Homo sapiens) (UniProt P50613); settings: Compound concentration 100.0 nM
# Chain of Cyclin-dependent kinase 7 (Homo sapiens) (P50613 whole entry): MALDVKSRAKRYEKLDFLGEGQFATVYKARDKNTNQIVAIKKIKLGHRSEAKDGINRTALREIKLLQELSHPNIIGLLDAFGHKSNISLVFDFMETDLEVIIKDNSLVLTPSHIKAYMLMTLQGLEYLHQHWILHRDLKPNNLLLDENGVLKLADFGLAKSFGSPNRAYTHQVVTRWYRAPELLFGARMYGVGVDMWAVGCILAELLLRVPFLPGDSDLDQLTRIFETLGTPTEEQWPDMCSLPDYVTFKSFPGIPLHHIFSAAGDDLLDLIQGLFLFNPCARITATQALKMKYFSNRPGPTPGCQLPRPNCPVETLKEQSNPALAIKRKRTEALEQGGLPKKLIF
# [41] = target: Ribosomal protein S6 kinase alpha-1 (Homo sapiens) (UniProt Q15418); settings: Compound concentration 100.0 nM
# [42] = target: Tyrosine-protein kinase ZAP-70 (Homo sapiens) (UniProt P43403); settings: Compound concentration 100.0 nM
# Chain of Tyrosine-protein kinase ZAP-70 (Homo sapiens) (P43403 whole entry): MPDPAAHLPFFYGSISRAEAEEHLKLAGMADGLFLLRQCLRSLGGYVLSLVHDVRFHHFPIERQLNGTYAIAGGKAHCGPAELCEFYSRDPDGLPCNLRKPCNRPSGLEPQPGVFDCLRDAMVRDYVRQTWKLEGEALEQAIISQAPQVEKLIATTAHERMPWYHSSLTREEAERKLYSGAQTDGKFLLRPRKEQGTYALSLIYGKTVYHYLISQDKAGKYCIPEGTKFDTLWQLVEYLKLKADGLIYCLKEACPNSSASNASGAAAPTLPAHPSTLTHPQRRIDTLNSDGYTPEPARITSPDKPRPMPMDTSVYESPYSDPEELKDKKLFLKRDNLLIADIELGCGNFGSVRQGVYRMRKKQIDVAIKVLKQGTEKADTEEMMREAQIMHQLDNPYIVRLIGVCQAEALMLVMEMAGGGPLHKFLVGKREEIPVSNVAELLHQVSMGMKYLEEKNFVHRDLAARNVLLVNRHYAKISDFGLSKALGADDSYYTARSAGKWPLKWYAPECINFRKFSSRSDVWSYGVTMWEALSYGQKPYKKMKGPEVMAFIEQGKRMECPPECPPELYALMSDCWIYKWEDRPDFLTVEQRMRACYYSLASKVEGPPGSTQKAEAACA
# [43] = target: NT-3 growth factor receptor (Homo sapiens) (UniProt Q16288); settings: Compound concentration 100.0 nM
# [44] = target: D(1B) dopamine receptor (Homo sapiens) (UniProt P21918); settings: Compound concentration 10.0 uM
# [45] = target: Serine/threonine-protein kinase B-raf (Homo sapiens) (UniProt P15056); settings: Compound concentration 100.0 nM
structure (smiles),measurement,setting,value
Nc1c(C(=O)NCc2ccc(C(=O)NCCCC3CCCCC3)cc2)cnn1-c1ccccc1 [SR-318],residual activity,[1],82%
same,residual activity,[2],100%
same,residual activity,[3],97%
same,residual activity,[4],87%
same,residual activity,[5],100%
same,residual activity,[6],100%
same,residual activity,[7],100%
same,residual activity,[8],100%
same,residual activity,[9],39%
same,residual activity,[10],100%
same,residual activity,[11],100%
same,residual activity,[12],100%
same,residual activity,[13],96%
same,residual activity,[14],87%
same,residual activity,[15],72%
same,residual activity,[16],100%
same,inhibition,[17],18.1%
same,residual activity,[18],94%
same,residual activity,[19],100%
same,residual activity,[20],100%
same,residual activity,[21],100%
same,residual activity,[22],100%
same,residual activity,[23],100%
same,residual activity,[24],100%
same,residual activity,[25],100%
same,residual activity,[26],81%
same,residual activity,[27],100%
same,residual activity,[28],100%
same,residual activity,[29],100%
same,residual activity,[30],100%
same,residual activity,[31],68%
same,residual activity,[32],96%
same,residual activity,[33],86%
same,residual activity,[34],100%
same,residual activity,[35],90%
same,residual activity,[36],85%
same,residual activity,[37],100%
same,residual activity,[38],99%
same,residual activity,[39],100%
same,residual activity,[40],100%
same,residual activity,[41],100%
same,residual activity,[42],100%
same,residual activity,[43],97%
same,inhibition,[44],28.4%
same,residual activity,[45],90%
O=C(NCCCC1CCCCC1)c1ccc(CNC(=O)c2cnn(-c3ccccc3)c2C(F)(F)F)cc1 [SR-321],residual activity,[1],100%
same,residual activity,[2],78%
same,residual activity,[3],88%
same,residual activity,[4],100%
same,residual activity,[5],100%
same,residual activity,[6],74%
same,residual activity,[7],97%
same,residual activity,[8],100%
same,residual activity,[9],57%
same,residual activity,[10],100%
same,residual activity,[11],100%
same,residual activity,[12],100%
same,residual activity,[13],65%
same,residual activity,[14],81%
same,residual activity,[15],95%
same,residual activity,[16],100%
same,inhibition,[17],3.68%
same,residual activity,[18],76%
same,residual activity,[19],100%
same,residual activity,[20],100%
same,residual activity,[21],88%
same,residual activity,[22],100%
same,residual activity,[23],89%
same,residual activity,[24],100%
same,residual activity,[25],96%
same,residual activity,[26],94%
same,residual activity,[27],97%
same,residual activity,[28],100%
same,residual activity,[29],99%
same,residual activity,[30],100%
same,residual activity,[31],100%
same,residual activity,[32],96%
same,residual activity,[33],100%
same,residual activity,[34],100%
same,residual activity,[35],92%
same,residual activity,[36],100%
same,residual activity,[37],100%
same,residual activity,[38],100%
same,residual activity,[39],87%
same,residual activity,[40],100%
same,residual activity,[41],100%
same,residual activity,[42],100%
same,residual activity,[43],100%
same,inhibition,[44],23.2%
same,residual activity,[45],100%
